Marks after values point to notes of the source that are not given here.
Assays:
Format in all cases: in vivo
G6Pase = test: Semi-quantitative RT-PCR of liver mRNA: G6Pase; details: HFD mice, 4 weeks, vs HF group
Experimental: (§1) The following experiment was performed and approved by the guidelines of the Institutional Animal Care and Use Committee of Central Taiwan University of Science and Technology. The 4-week old male C57BL/6J mice (total amount n=63) were purchased from the National Laboratory Animal Breeding and Research Center (Taipei, Taiwan). After acclimatization for one week, all of the mice were divided randomly into the control (CON) group and the high-fat diet (HFD) group. […] After HFD exposure for 8 weeks, the HFD group was further randomly subdivided into 6 groups (n=9 per group) to receive different treatments by oral gavage once daily for four weeks and on HFD. […] The HF+B1, HF+B2, and […] are collectively termed BB-treated HFD groups in the following examples. The CON mice were administered vehicle. After dosing for 4 weeks, the mice were given no food at night and sacrificed after 12 h of fasting on the next day. All of the individual tissues were collected and weighed, and portions were instantly frozen using liquid nitrogen and kept at −80° C. for subsequent target gene analysis. Blood samples (0.8 mL) were collected for analysis of blood parameters.
(§2) Total RNA from liver tissue of mice was isolated with a Trizol Reagent (Molecular Research Center, Inc., Cincinnati, Ohio, USA) according to the manufacturer's instructions. The integrity of the extracted total RNA was examined by 2% agarose gel electrophoresis, and the RNA concentration was determined by the ultraviolet (UV) light absorbency at 260 nm and 280 nm (Spectrophotometer U-2800A, Hitachi). The quality of the RNA was confirmed by ethidium bromide staining of 18S and 28S ribosomal RNA after electrophoresis on 2% agarose gel containing 6% formaldehyde.
(§3) Levels of mRNA of genes of interest were quantified by semi-quantitative reverse transcription polymerase chain reaction (RT-PCR). […] PCR products were analyzed by 2% agarose gels and stained with ethidium bromide.

[1] = test system: C57BL/6J mice on high-fat diet (HFD); test: Hepatic lipids in HFD mice; details: 4 weeks
Experimental: The following experiment was performed and approved by the guidelines of the Institutional Animal Care and Use Committee of Central Taiwan University of Science and Technology. The 4-week old male C57BL/6J mice (total amount n=63) were purchased from the National Laboratory Animal Breeding and Research Center (Taipei, Taiwan). After acclimatization for one week, all of the mice were divided randomly into the control (CON) group and the high-fat diet (HFD) group. For the following 12 weeks, the CON group (n=9) was kept on a low-fat diet (Diet 12450B, Research Diets, Inc., New Brunswick, N.J., USA), while the HFD group (n=54) was exposed to a high-fat diet (Diet 12451, Research Diets, New Brunswick, N.J., USA). The low-fat diet was composed of protein 20%, carbohydrate 70% and fat 10%, whereas the high-fat diet was composed of protein 20%, carbohydrate 35%, and fat 45% (of total energy, % kcal). After HFD exposure for 8 weeks, the HFD group was further randomly subdivided into 6 groups (n=9 per group) to receive different treatments by oral gavage once daily for four weeks and on HFD. […] The HF+B1, HF+B2, and […] are collectively termed BB-treated HFD groups in the following examples. The CON mice were administered vehicle. After dosing for 4 weeks, the mice were given no food at night and sacrificed after 12 h of fasting on the next day. All of the individual tissues were collected and weighed, and portions were instantly frozen using liquid nitrogen and kept at −80° C. for subsequent target gene analysis. Blood samples (0.8 mL) were collected for analysis of blood parameters.
For hepatic lipid extraction, a 0.375 g liver samples were homogenized with 1 mL distill water for 5 minutes. The dried pellet was finally resuspended in 0.5 mL ethanol and analyzed using a triglycerides kit as used for analyzing the serum lipids set forth above.

GLUT4 = test: Western blotting of membrane GLUT4 in skeletal muscle; details: HFD mice, 4 weeks, vs HF group
Experimental: as §1
The protein concentration in supernatant was determined with a BCA protein assay kit (Thermo Scientific, Rockford, Ill., USA). […] Immunoreactive bands were detected with ECL reagent kit (GE Healthcare BioSciences, Buckinghamshire, UK).

GPAT = test: Semi-quantitative RT-PCR of liver mRNA: GPAT; details: HFD mice, 4 weeks, vs HF group
Experimental: as §1, §2, §3

## OCC1O[C@@H](O[C@@H]2Cc3c(O)cc(O)cc3O[C@@H]2c2ccc(O)c(O)c2)C(O)C(O)[C@@H]1O (single isomer, unassigned; (-)) [compound of formula I, (−)-epicatechin-3-O-β-D-allopyranoside]
G6Pase; 10 mg/kg/day oral gavage
  liver mRNA level of G6Pase: significantly reduced
G6Pase; 20 mg/kg/day oral gavage
  liver mRNA level of G6Pase: significantly reduced
G6Pase; 40 mg/kg/day oral gavage
  liver mRNA level of G6Pase: significantly reduced
[1]; 10 mg/kg/day oral gavage
  Liver lipids Total lipid: 71.9 ± 6.5^d mg/g
  Liver lipids Triacylglycerol: 49.9 ± 8.0^d μmol/g
[1]; 20 mg/kg/day oral gavage
  Liver lipids Total lipid: 66.1 ± 6.9^e mg/g
  Liver lipids Triacylglycerol: 42.8 ± 6.5^f μmol/g
[1]; 40 mg/kg/day oral gavage
  Liver lipids Total lipid: 60.2 ± 5.2^f mg/g
  Liver lipids Triacylglycerol: 40.8 ± 4.6^f μmol/g
GLUT4; 10 mg/kg/day oral gavage
  protein level of GLUT4 at the plasma membrane: significantly enhanced
GLUT4; 20 mg/kg/day oral gavage
  protein level of GLUT4 at the plasma membrane: significantly enhanced
GLUT4; 40 mg/kg/day oral gavage
  protein level of GLUT4 at the plasma membrane: significantly enhanced
GPAT; 10 mg/kg/day oral gavage
  liver mRNA level of GPAT: significantly reduced
GPAT; 20 mg/kg/day oral gavage
  liver mRNA level of GPAT: significantly reduced
GPAT; 40 mg/kg/day oral gavage
  liver mRNA level of GPAT: significantly reduced

Reference: patent US9877980B2, “Method and composition for treatment or prevention of type 2 diabetes and hyperlipidemia” (Chun-Ching Shih, priority 2016, dated 2018)
